# In US11647751B2, “Use of phosphorus containing herbicides as desiccant for plants of the genus Saccharum” (BASF SE, priority 2013, dated 2023):
# Test system: Saccharum officinarum plants
# Assay: Field trial: desiccation of sugarcane leaves after application of diluted glufosinate-ammonium compositions
# Format: in vivo
# Settings: growth stage BBCH 49 (approx. 300 cm), evaluation 2 weeks after application
# Experimental: The compositions described in the table above were diluted with water and applied to a field of Saccharum officinarum plants at growth stage BBCH 49 (approximately 300 cm growth height; corresponding to about 2 weeks before harvest), such that the amount of glufosinate ammonium was 800 g/ha or 1000 g/ha, respectively.
structure (smiles),measurement,setting,value
"CP(=O)(O)CCC(N)C(=O)O (centres unmarked) [glufosinate ammonium, 2-amino-4-[hydroxy(methyl)phosphinoyl]butanoic acid]",desiccation of sugarcane leaves,800 g/ha glufosinate ammonium,54%
same,desiccation of sugarcane leaves,1000 g/ha glufosinate ammonium,60%
